This is an account of results in patent US8598122B2, “Antagonistic peptides for frizzled-1 and frizzled-2” (Universiteit Maastricht, priority 2009, dated 2013).

Entries after “also recorded” stand apart in the source; their conditions may differ. Where a SMILES comes first, the peptide text is derived from it.

The test system of assay [1] is frizzled receptor. The experiment in a line: Activity on the frizzled receptor (activity assay of Example 1), result in words. Format: cell-based. As to the method:
(§1) Human embryonic kidney (HEK) cells were used for screening. These cells have a luciferase construct stably transfected into the genome (see FIG. 2A), such that when the frizzled receptor is activated and β-catenin is increased, the luciferase is activated by transcription and light can be measured.
(§2) The peptides were tested by transfecting the frizzled-1 or the frizzled-2 receptor and addition of UM206(S-S) to the cell culture. For testing antagonistic activity, UM206 was added and the natural ligand Wnt3a was added, which is a natural stimulus for the canonical pathway.
Analogues of UM206 were prepared by solid phase peptide synthesis. Each amino acid residue was sequentially replaced by an alanine residue and antagonistic activity of the analogue was tested as described in the activity assay of Example 1. […] Titles indicate which amino acid residue was substituted by an alanine residue.

Assay [2] has as its target T1, frizzled-2 (rFzd-2) (Rattus norvegicus, UniProt Q08464).
T1 construct: expressed in transfected cells; host or cells: HEK293 superTOPflash (human embryonic kidney), transient, pcDNA3.1/hygro
The experiment in a line: Activity assay: Wnt3a-induced luciferase (superTOPflash) in HEK cells transfected with frizzled-2. The format is cell-based. On the procedure: as §1, §2
Day 2: Transfection 12-well plates • heat Fugene6 and DNA 15 minutes at RT • 2 ml serum-free medium in tube • add 3μl fugene • add 2 μg DNA • incubate 30 minutes at RT • wash with PBS • add 50 μtransfectiemix • add 1 ml antibiotica-free medium
Day 3: Add conditioned medium or UM206
Day 4: Luciferase activity measurements • remove medium • wash with PBS • add 500 μl ⅕ lysisbuffer • shake for 60 minutes • centrifuge in tube • 20 μl lysaat and 50 μl luciferase in new tube for measurement • vortex • measure
To determine the inhibitory constant of UM206-8, HEK293-superTOPflash cells were transfected with either rFzd-1 or -2 and incubated with Wnt3a (10^−9M) in the presence of increasing concentrations of either of the peptides (FIG. 15). For UM206, a biphasic inhibition curve was observed that was best fitted with a two-binding-state model.
(§3) The cell lines were cultured in 75 cm^2 culture flasks (Corning, Schiphol, the Netherlands) in Dulbeco's modified essential medium with L-glutamine (2 mM), 10% fetal calf serum (Invitrogen, Merelbeke, Belgium), and 1% gentamycin (Sigma-Aldrich, Zwijndrecht, The Netherlands). Before starting the experiment, the cell lines were treated with plasmocin 25 μg/ml (Invivogen, Toulose, France) and tested with a mycoalert mycoplasma detection kit (Lonza, Rockland Me., USA). Cells were transiently transfected with Fugene6 (Roche, Indianapolis Ind., USA) with plasmid DNA, pcDNA3.1/hygro (Invitrogen) with frizzled-1/2/4 or Wnts 3a-5a or with pcDNA3.0 (Invitrogen) containing the β-catenin or frizzled-5 sequence. After transfection, the cells were cultured for 24 hours in conditioned medium, collected from the cultured L-cells, L-cells with Wnt3a or 5a (Invitrogen). At the same moment the antagonist was added.

The test system of assay [3] is C-FIT cells. The experiment in a line: Differentiation assay (α-SMA) with C-FIT cells. Format: cell-based, rat. An excerpt:
For this assay, we used the same C-FIT cells as for the migration assay to study a second component of wound healing, namely, differentiation of fibroblasts into myofibroblasts. When wound healing starts, cells called fibroblasts migrate into the scar. These cells have no contractile properties; however, they can differentiate into myofibroblasts, which can actively contract. To study which signals influence the transition from fibroblast into myofibroblasts, we treated the C-FIT cells and harvested them for mRNA isolation. Next, we tested them for the presence of specific markers for myofibroblasts by reverse transcription of the mRNA and subsequent quantitative PCR analysis, which are absent in fibroblasts. One of those markers is α-smooth muscle actin, which makes the cells contract.
RNA was isolated using the Trizol method (Invitrogen). For the RT-PCR, the RNA was transcribed to cDNA with iscript™ cDNA synthesis kit (Bio-Rad, Hercules Calif., USA), Syber green (Eurogentec, Ghent, Belgium) was used for the detection of cDNA levels and cyclophilin served as the house keeping gene. In Supplementary methods panel 5, the primer sequences are shown.

For assay [4], the target named is T2, hFzd-4 (Homo sapiens, UniProt Q9ULV1).
T2 construct: expressed in transfected cells; host or cells: HEK293 superTOPflash, transient, pcDNA3.1/hygro
T2 sequence (Q9ULV1 37-537): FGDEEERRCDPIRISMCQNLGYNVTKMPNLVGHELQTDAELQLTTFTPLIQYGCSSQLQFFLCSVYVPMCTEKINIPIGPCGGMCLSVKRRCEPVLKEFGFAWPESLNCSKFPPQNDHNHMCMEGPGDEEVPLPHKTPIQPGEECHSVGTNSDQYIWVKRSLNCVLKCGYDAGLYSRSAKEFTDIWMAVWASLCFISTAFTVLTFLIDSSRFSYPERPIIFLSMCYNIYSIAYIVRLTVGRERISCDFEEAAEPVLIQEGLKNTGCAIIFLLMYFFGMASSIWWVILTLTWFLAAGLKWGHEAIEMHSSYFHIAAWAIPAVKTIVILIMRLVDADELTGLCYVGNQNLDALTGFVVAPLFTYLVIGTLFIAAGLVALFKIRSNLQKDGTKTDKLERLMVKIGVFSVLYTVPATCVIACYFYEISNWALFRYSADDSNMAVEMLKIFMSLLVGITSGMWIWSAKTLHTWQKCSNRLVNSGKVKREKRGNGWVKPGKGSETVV
The experiment in a line: Luciferase activity in HEK293 superTOPflash cells overexpressing hFzd-4. Format: cell-based. Conditions: 1.10^−8 M. As to the method: In FIG. 3, Panel E, the efficacy of UM206 to block the Wnt3a-induced activation of luciferase activity in HEK293 superTOPflash cells transfected with different Fzds is shown.
as §3

The subject of assay [5] is 129S6 mice. The assay is described as follows: Infarct rupture in 129S6 mice. Format: in vivo. As to conditions: infarct rupture frequency ˜60%, unpublished observations. From the text:
Because of the lack of pharmacological tools to intervene in Wnt/Fzd signaling in vivo, only genetic interventions have been reported so far in studies on the role of Wnt signaling in infarct healing. Barandon et al. were the first to show a beneficial effect of overexpression on infarct healing of FrzA, a bovine homologue of soluble frizzled-related protein-1 (sFRP1). They observed a decreased infarct size with elevated numbers of myofibroblasts and increased angiogenesis in the infarcted FrzA transgenic mice (Barandon et al., 2003), which could be confirmed in the present study using an Fzd-1 and -2 antagonist. […] In the mean time, the beneficial effects of sFRP overexpression on infarct healing have been confirmed by Kobayashi et al. (Kobayashi et al., 2009). Taken together, these reports support the observations of the present study and point to a beneficial effect of inhibiting Wnt/Fzd signaling on the wound-healing process after MI.

T1 sequence (Q08464 29-570): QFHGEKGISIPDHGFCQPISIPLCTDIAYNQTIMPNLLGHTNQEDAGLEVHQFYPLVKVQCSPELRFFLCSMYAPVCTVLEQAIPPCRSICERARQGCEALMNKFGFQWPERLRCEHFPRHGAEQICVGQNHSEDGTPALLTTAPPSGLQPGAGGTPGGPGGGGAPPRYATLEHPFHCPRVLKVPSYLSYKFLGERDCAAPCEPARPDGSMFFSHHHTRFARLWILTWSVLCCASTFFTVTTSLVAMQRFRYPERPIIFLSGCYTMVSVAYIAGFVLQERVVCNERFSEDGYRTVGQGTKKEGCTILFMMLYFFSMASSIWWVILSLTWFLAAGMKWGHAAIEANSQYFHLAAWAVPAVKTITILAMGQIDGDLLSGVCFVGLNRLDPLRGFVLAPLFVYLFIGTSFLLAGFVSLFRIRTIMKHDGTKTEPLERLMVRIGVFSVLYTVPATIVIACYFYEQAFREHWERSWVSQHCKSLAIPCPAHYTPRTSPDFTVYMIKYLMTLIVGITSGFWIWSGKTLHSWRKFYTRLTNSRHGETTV

In the case of `CSCC[C@H](NC(=O)CNC(=O)[C@H](CCC(=O)O)NC(=O)[C@H](CO)NC(=O)[C@@H](NC(=O)[C@H](CCCCN)NC(=O)[C@H](CC(N)=O)NC(=O)[C@H](CS)NC(C)=O)[C@@H](C)O)C(=O)N[C@@H](CC(=O)O)C(=O)NCC(=O)N[C@@H](CS)C(=O)N[C@@H](CCC(=O)O)C(=O)N[C@@H](CC(C)C)C(N)=O` [UM206, Ac-Cys-Asn-Lys-Thr-Ser-Glu-Gly-Met-Asp-Gly-Cys-Glu-Leu-NH2] (Ac-CNKTSEGMDGCEL-NH2), in assay [1], the “Activity on the frizzled receptor (in words)” value is given as “very potent antagonist” and the “IC50 (range in words)” value is on record as “in the nanomolar range”. For the same compound, in assay [2], the “Higher affinity for rFzd-2 than for rFzd-1” value is approximately 100 fold and the “Selectivity frizzled-2 over frizzled-1” value is listed as “slightly more selective for frizzled-2 over frizzled-1”. In addition, the “Blocking of Wnt3a-induced luciferase activity, frizzled-2” value in assay [2] (increasing amounts of antagonist) was “completely and concentration-dependently blocked”. Besides, the “Blocking of Wnt3a-induced luciferase activity, rFzd-2” value in assay [2] (peptide 1.10^−8 M) is listed as “blocked almost completely; also recorded: abolished the induction of luciferase activity almost completely”. Further, the “Effect of the antagonist on its own on luciferase activity” value in assay [2] (without Wnt3a) is reported as “no effect”. For the same compound, the “Effect on Wnt3a/5a-induced differentiation (α-SMA levels)” value in assay [3] was “completely blocks this differentiation”. The “Effect on Wnt3a-induced luciferase activity, frizzled-4” value in assay [4] was “no effect”. Further, in assay [5], the “number of ruptured infarcts” value is on record as “did not reduce the number of ruptured infarcts”.
